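Results reflect a 48-hour exposure of cells in 96-well plates to compound at five concentrations. GI50 = concentration required for 50% inhibition of growth.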 The source made the active and inactive calls. No stated cut-off is given here; in the data, active = GI50 up to about 1.1 µM and inactive = higher.
Experiments:
Assay in all cases: inhibition of tumour cell growth, NCI panel, 48 h
[1] = test system: NCI-H226
[2] = test system: A498
[3] = test system: NCI/ADR-RES
[4] = test system: KM12
[5] = test system: MDA-MB-435
[6] = test system: UACC-62
[7] = test system: PC-3
[8] = test system: CAKI-1
[9] = test system: LOX IMVI
[10] = test system: HOP-62
[11] = test system: 786-0
[12] = test system: Malme-3M
[13] = test system: SK-OV-3
[14] = test system: RPMI-8226
[15] = test system: HCT-15
[16] = test system: OVCAR-3
[17] = test system: BT-549
[18] = test system: TK-10
[19] = test system: UACC-257

Compound | GI50 [1] | GI50 [2] | GI50 [3] | GI50 [4] | GI50 [5] | GI50 [6] | GI50 [7] | GI50 [8] | GI50 [9] | GI50 [10] | GI50 [11] | GI50 [12] | GI50 [13] | GI50 [14] | GI50 [15] [µM] | GI50 [16] | GI50 [17] | GI50 [18] | GI50 [19]
Clc1ccccc1NN(Cc1ccccn1)c1ccccc1Cl | 16.2 µM (inactive) | 20.5 µM (inactive) | 16.7 µM (inactive) | 16.9 µM (inactive) | 16.6 µM (inactive) | 16.7 µM (inactive) | 29.2 µM (inactive) | 54.3 µM (inactive) | 18.6 µM (inactive) | 17.9 µM (inactive) | 16.9 µM (inactive) | 19 µM (inactive) | 49.8 µM (inactive) | 16.1 µM (inactive) | 24.9 | 18.1 µM (inactive) | 25.1 µM (inactive) |  | 
COc1ccc(C(=O)O[C@@H]2CCN3CC[C@H](C)[C@H]23)cc1 | > 100 µM (inactive) | > 100 µM (inactive) | > 100 µM (inactive) | > 100 µM (inactive) | > 100 µM (inactive) | > 100 µM (inactive) | > 100 µM (inactive) | > 100 µM (inactive) | > 100 µM (inactive) | > 100 µM (inactive) | > 100 µM (inactive) |  | > 100 µM (inactive) | > 100 µM (inactive) | > 100 | > 100 µM (inactive) | > 100 µM (inactive) | > 100 µM (inactive) | > 100 µM (inactive)
O=C(/C=C/C(=O)N1CCCC1)N1CCCC1 |  | > 100 µM (inactive) | > 100 µM (inactive) | > 100 µM (inactive) | > 100 µM (inactive) | > 100 µM (inactive) | > 100 µM (inactive) | > 100 µM (inactive) | > 100 µM (inactive) | > 100 µM (inactive) | > 100 µM (inactive) | > 100 µM (inactive) | > 100 µM (inactive) | > 100 µM (inactive) | > 100 | > 100 µM (inactive) | > 100 µM (inactive) | > 100 µM (inactive) | > 100 µM (inactive)
COC(=O)Nc1cc(OCCCOC(C)=O)c2[nH]c(C(=O)OC)cc2c1C[C@H](O)CO | > 100 µM (inactive) | > 100 µM (inactive) | > 100 µM (inactive) | > 100 µM (inactive) | > 100 µM (inactive) | > 100 µM (inactive) | > 100 µM (inactive) | > 100 µM (inactive) | > 100 µM (inactive) | > 100 µM (inactive) | > 100 µM (inactive) |  | > 100 µM (inactive) | > 100 µM (inactive) | > 100 | > 100 µM (inactive) | 54.7 µM (inactive) | > 100 µM (inactive) | > 100 µM (inactive)
CC(C)CCC[C@@H](C)[C@H]1CC[C@H]2[C@@H]3CC=C4C[C@@H](OC(=O)c5cccc6c(=O)c7ccccc7[nH]c56)CC[C@]4(C)[C@H]3CC[C@]12C | > 75 µM (inactive) | > 75 µM (inactive) | > 75 µM (inactive) | > 75 µM (inactive) | > 75 µM (inactive) | > 75 µM (inactive) | > 75 µM (inactive) |  | > 75 µM (inactive) | 34.9 µM (inactive) | > 75 µM (inactive) | > 75 µM (inactive) | > 75 µM (inactive) | > 75 µM (inactive) | > 75 | > 75 µM (inactive) | > 75 µM (inactive) | > 75 µM (inactive) | > 75 µM (inactive)
COC(=O)[C@]12CCC(C)(C)C[C@H]1C1=CC[C@@H]3[C@@]4(C)CC[C@H](OC5OC(CO)C(O)C(O)C5OC5OC(CO)C(O)C(O)C5O)C(C)(C)[C@@H]4CC[C@@]3(C)[C@]1(C)CC2 (some centres not stated) | 3.43 µM (inactive) | 11.3 µM (inactive) | 14.5 µM (inactive) | 12.6 µM (inactive) | 7.6 µM (inactive) | 10.5 µM (inactive) | 3.89 µM (inactive) | 8.81 µM (inactive) | 6.15 µM (inactive) | 12.6 µM (inactive) | 11.2 µM (inactive) | 11.9 µM (inactive) | 20.5 µM (inactive) | 19.3 µM (inactive) | 12.5 | 10.6 µM (inactive) | 17.4 µM (inactive) |  | 7.85 µM (inactive)
